Reference: publication PMC11763059, “GENI as an AMPK Activator Binds α and γ Subunits and Improves the Memory Dysfunction of Alzheimer’s Disease Mouse Models via Autophagy and Neuroprotection” (Antioxidants, 2025)

How the values were obtained:
[1] = Serum biochemical index of D-galactose mice; details: D+DON 3 mg/kg, mean ± SEM, n 7
Description: (§3) Each group comprised 10 mice. […] Dosing lasted for 10 weeks. […] The mice were sacrificed after 10 weeks of administration.
(§4) At the end of the animal experiment, the epididymis fat, heart, liver, spleen, and kidney of the mice were removed for weighing analysis.

[2] = Organ weights in the D-gal induced AD mice experiment; details: D-gal + DON 3 mg/kg, gavage 10 weeks, mean ± SEM, n 7
Description: as §3, §4

PC12 cells [3] = assay: Autophagy flow assay (CYTO-ID) in PC12 cells; assay type: cell-based; details: 5 mM 3-MA + 10 μM GENI + 10 μM CQ
Description: The experiment was carried out according to the instructions of the CYTO-ID autophagy detection kit (Enzo Biochem, New York, NY, USA). In brief, we seeded 7.5 × 10^4 PC12 cells in each well of a 24-well plate using the cell slide method. The cells were incubated for 24 h at 37 °C in a 5% CO2 incubator. The experiment was divided into control (0.5% DMSO), positive control rapamycin (Rap 500 nM + chloroquine (CQ)), GENI treated-group (10 μM GENI + 10 μM CQ), 3-MA inhibitor group (5 mM 3-MA + 10 μM CQ) and GENI + 3MA group (5 mM 3-MA + 10 μM GENI + 10 μM CQ). The optimum concentration of 3MA inhibitor was referenced in the other report. At first, 0.5 mL of serum-free DMEM (plus 1% dual anti-penicillin–streptomycin) containing 3-MA (5 mM) was used to replace the medium in two groups as well as 0.5 mL of serum-free DMEM was added in the other groups, respectively. After treating for 6 h, 0.5 mL of DMEM containing DMSO (0.5%), Rap (500 nM) + CQ (10 μM), GENI (10 μM) + CQ (10 μM), CQ (10 μM), and GENI (10 μM) + CQ (10 μM) was added into the corresponding group, respectively. After 18 h, we removed the medium and washed cells twice with 1× assay buffer containing 5% FBS. We then added CYTO-ID Green detection reagent and Hocchst 33342 nuclear stain to the cells, which were incubated at 37 °C for 45 min. After three washes with 1× assay buffer, we fixed cells with 4% paraformaldehyde for 20 min. After three washes with 1× assay buffer, we observed the cells with an upright two-photon confocal microscope (Olympus FV1000BX-51, Tokyo, Japan).

PC12 cells [4] = assay: Western blot of LC3 II/LC3 I in the autophagy flow assay; assay type: cell-based; details: 3-MA 5 mM
Description: (§1) Western blot analysis for p-AMPK α, AMPK α, p-mTOR, mTOR, p-ULK1, ULK1, and LC3-I/II was conducted according to the information described in the materials and methods section of Supplementary Information.
1.3. Western blot analysis.
For PC12 cell samples, we seeded 2 × 10^6 PC12 cells in each 60 mm dish containing 5 mL of DMEM and incubated the dish for 24 h. For the dose-dependent experiment of GENI, GENI (1, 3 and 10 μM) was added to the dishes and incubated for a period of time (2 hours for p-AMPK α, AMPK α, 48 hours for p-mTOR, mTOR and p-ULK1, ULK1; 8 hours for LC3-I/II). Cells were then collected, lysed using RAPI lysis buffer and centrifuged. The supernatants of each group were used as protein samples. For the protein samples of autophagy flow assay, we seeded 2 × 10^6 PC12 cells in each 60 mm dish containing 5 mL of DMEM and incubated the dish for 24 h.
The GENI, rapamycin and inhibitors, such as chloroquine and 3-MA were added according to the method of autophagy flow assay. After treatment of 18 h, cells were then collected, lysed using RAPI lysis buffer and centrifuged. […] The protein concentration was measured with a BCA assay kit (Beijing Cowin Biotech Company, Beijing, China). […] Bands were quantitatively measured using ImageJ software (National Institutes of Health, Bethesda, MD, USA).

APP/PS1 mice = system: APP/PS1 mice; parameters: method as in PMID 31837991; details: APP/PS1 mice ref 27; cited from earlier work
natural aging AD mice [5] = assay: Behaviour tests in naturally aged mice with AD; assay type: in vivo
Description: (§2) Each group had 10 mice. GENI was dissolved in ultrapure water and administered by gavage, whereas Dor was dissolved in normal saline. The pH was adjusted to pH 5 with 0.1 M hydrochloric acid to the clarified solution and administered by intraperitoneal injection. The dosing experiment also lasted 10 weeks. Animal behavioral experiments and sampling at the end of the animal experiment were performed as described above.
The Y-maze is mainly used to study the spatial working memory ability of rodents. The Y-maze consisted of three equal-length arms (50 cm × 18 cm × 35 cm), and the angle between each two arms was 120 degrees. The mice were placed at the end of any arm of the Y-maze and allowed to explore freely for 8 min. The behavioral changes including the total number of entries and alternation (successively entering all three arms of the Y-maze once in turn) were recorded. Percentage altercation = alternation/(entries-2) × 100%. The Y-maze could effectively reflect the ability of animals to recognize and remember novel environments.
NOR was used to detect memory in rodents. We prepared a 40 × 40 × 40 cm square box, camera equipment, and behavioral analysis software. We chose three objects A, B, and C, where objects A and B were exactly the same, and object C was very different from objects A and B. After the start of the experiment, the mice were allowed to acclimate freely in the experimental apparatus for 10 min. Objects A and B were placed into the box, and the mice were allowed to explore for 5 min. We then recorded the exploration time and times. After 1 h, A and C or B and C were placed into the box. After letting the mice explore for 5 min, we recorded the exploration time of the original object and the new object. Discrimination index = exploration time of new objects/total exploration time × 100%.
The MWM installation consisted of a circular pool (120 cm in diameter and 50 cm in height), camera equipment, and a computer analysis system. In the first stage, the platform position was fixed, and mice were placed into the pool from any three of the four origins on the pool facing away from the pool wall. The time when it took for the mouse to find the platform within 120 s, called escape latency, was recorded. The training period lasted 4 days. The escape latency of the mice was recorded daily, and the average value was used as an index to evaluate the ability of learning and memory. On the 5th day, the platform was evacuated by the experimenter. The mice were placed against the platform into the water from any water entry point, and they were allowed to swim freely for 60 s. We then recorded the number of times that they crossed the platform.

natural aging AD mice [6] = assay: Immunohistochemistry and Western blot of brain in naturally aged AD mice; assay type: in vivo; details: Dor 2 mg/kg + GENI 25 mg/kg
Description: as §2
Firstly, the three mice of each group were subjected to heart perfusion at the end of the animal experiment, and the whole brain was removed and placed in 15 mL of 4% paraformaldehyde and stored at 4 °C for 24 h. Secondly, we changed 4% paraformaldehyde into 15% sucrose solution and stored the solution at 4 °C for 24 h. We then changed the solution to 30% sucrose solution to dehydrate for 2 days. Thirdly, the mouse brain tissue was embedded in a cryo-embedding medium, and about 80 slices with a thickness of 20 μm were cut in the hippocampus using a cryostat (Thermal Fisher, Shanghai, China). The sections of mice in each group were immunohistochemically stained with primary antibodies, such as neuronal nuclear anti gen (NeuN), ionized calcium-binding adapter molecule 1 (Iba-1), inducible nitric oxide synthase (iNOS, pro-inflammatory factors), synaptophysin (Syp), and glial fibrillary acidic protein (GFAP), and secondary antibody. The product number and usage ratios of primary and secondary antibodies are detailed in Supplementary Table S4. Finally, the sections were observed under an upright two-photon confocal microscope (Olympus BX61, Tokyo, Japan) and recorded by a camera. The pictures were digitized with ImageJ software V1.8.0.112 (National Institutes of Health, Bethesda, MD, USA).
as §1
1.3. Western blot analysis. […]
The supernatants of each group were used as protein samples. For animal samples, an appropriate amount of tissue, such as cerebral cortex and hippocampus (50–100 mg), of each group was weighed, and we added lysis buffer with 1:9 ratios. After grinding and centrifuging, the supernatants of each group were used as protein samples. The protein concentration was measured with a BCA assay kit (Beijing Cowin Biotech Company, Beijing, China). Sodium dodecyl sulphate polyacrylamide gel electrophoresis (SDS-PAGE) was used to separate proteins (15 μg), which were transferred to PVDF membranes. The membrane was incubated with primary and secondary antibodies (Supplementary Table S5 for details). Antigens were visualised using a high-sensitivity chemiluminescence detection kit (Beijing Cowin Biotech Company, Beijing, China). Bands were quantitatively measured using ImageJ software (National Institutes of Health, Bethesda, MD, USA).

AMPK = assay: Inhibitor experiment with Dor in PC12 cells (Western blot); assay type: cell-based; details: Dor pre-treatment then 10 μM GENI 2 h
Description: Firstly, 2 × 10^6 cells were added to a 60 mm Petri dish containing 5 mL of DMEM and incubated for 24 h. Secondly, the C group, GENI group, Dor group, and GENI+ Dor group were established. The dishes containing the Dor group were pre-treated with 5 μM Dor for 2 h, and the remaining groups were balanced with DMSO. The group containing 10 μM GENI was added, and the remaining groups were balanced with DMSO. After incubation for 2 h, protein extraction was performed for the Western blot experiment.

Compound: COc1cc2c(cc1OC)C(=O)C(CC1CCN(Cc3ccccc3)CC1)C2 (stereo not shown) [DON, donepezil]
- ALB [1]: 24.0 ± 1.6 g/L
- Fat weight [2]: 0.728 ± 0.302 g
- Heart weight [2]: 0.196 ± 0.048 g
- Kidney weight [2]: 0.547 ± 0.034 g
- Spleen weight [2]: 0.113 ± 0.015 g

Compound: Cn1cnc(N)c2ncnc1-2 [3-MA, reference compound]
- autophagy induced by GENI, effect of the inhibitor (PC12 cells [3]): inhibited
- conversion of LC3 I to LC3 II induced by GENI, effect of the inhibitor (PC12 cells [4]): diminished

Compound: O=C(O)C1=CO[C@@H](O[C@@H]2O[C@H](CO)[C@@H](O)[C@H](O)[C@H]2O)[C@@H]2C(CO)=CC[C@H]12 [GPA, geniposidic acid]
- Aβ deposition in brains (APP/PS1 mice): reduce
- spatial learning and memory abilities (APP/PS1 mice): significantly improve

Compound: c1cc(-c2cnn3cc(-c4ccc(OCCN5CCCCC5)cc4)cnc23)ccn1 [Dor, dorsomorphin]
- GENI effects on escape latency and number of crossing platforms, effect of the AMPK inhibitor (natural aging AD mice [5]; Dor 2 mg/kg + GENI 25 mg/kg): partially reduced
- improvement in cognitive function by GENI in Y maze and NOR tests, effect of the AMPK inhibitor (natural aging AD mice [5]; Dor 2 mg/kg i.p. once every 2 days + GENI 25 mg/kg): significantly decreased
- activation of the AMPK/mTOR/ULK1 signaling pathway by GENI in hippocampus and cortex, effect of the AMPK inhibitor (natural aging AD mice [6]): suppressed
- anti-inflammation effects of GENI on activated microglia and astrocytes and iNOS expression, effect of the AMPK inhibitor (natural aging AD mice [6]): significantly suppressed
- effects of GENI on APP, Tau, Aβ and p-Tau, effect of the AMPK inhibitor (natural aging AD mice [6]): inhibited
- increase in neurons and synaptophysin expression in hippocampus and cortex by GENI, effect of the AMPK inhibitor (natural aging AD mice [6]): significantly diminished
- phosphorylation of AMPK, ULK1, and LC3 II after GENI treatment, effect of the AMPK inhibitor (AMPK): significantly decreased
